In patent US20220288069A1, “INHIBITORS OF TYROSINE KINASE” (BridGene Biosciences, Inc., priority 2019, published 2022):

Key:
MV4−11 = test: Cell viability assay (CellTiter-Glo), MV4-11; assay type: cell-based; settings: Homo sapiens, MV4-11 cells, 72 hr
Procedure: (§1) Cell viability assay was performed based on the following brief procedures. Cells were plated at the density of 5K/well with volume of […] in 96-well white plate and clear bottom plates. 20 μL of veh. or compound was added at proper concentration to the well. The final volume is 200 μL, with final conc. of DMSO32 0.1%, 11 points, triplicates. The cells were then treated at 37° C. in the TC incubator for 72 hr. Equal volume (200 μL) of CellTiter-Glo reagent (Promega) was added to the well and protect from light at room temperature for 15 min. The chemiluminicent was measured with EnSight (Perkin Elmer). GraphPad Prism non-linear regression, Log[inhibitor] response with four parameters were used to calculate GI50.

Kasumi−1 = test: Cell viability assay (CellTiter-Glo), Kasumi-1; assay type: cell-based; settings: Homo sapiens, Kasumi-1 cells, 72 hr
Procedure: as §1

FLT3 = biological target: T1, FLT3 (Homo sapiens, UniProt P36888); test: Caliper mobility shift kinase inhibition assay, FLT3; assay type: biochemical; settings: recombinant kinase; enzyme 0.1 nM, ATP 95 μM, incubation 3 hr
T1 construct: purchased ThermoFisher PV3182
T1 sequence (P36888 27-993): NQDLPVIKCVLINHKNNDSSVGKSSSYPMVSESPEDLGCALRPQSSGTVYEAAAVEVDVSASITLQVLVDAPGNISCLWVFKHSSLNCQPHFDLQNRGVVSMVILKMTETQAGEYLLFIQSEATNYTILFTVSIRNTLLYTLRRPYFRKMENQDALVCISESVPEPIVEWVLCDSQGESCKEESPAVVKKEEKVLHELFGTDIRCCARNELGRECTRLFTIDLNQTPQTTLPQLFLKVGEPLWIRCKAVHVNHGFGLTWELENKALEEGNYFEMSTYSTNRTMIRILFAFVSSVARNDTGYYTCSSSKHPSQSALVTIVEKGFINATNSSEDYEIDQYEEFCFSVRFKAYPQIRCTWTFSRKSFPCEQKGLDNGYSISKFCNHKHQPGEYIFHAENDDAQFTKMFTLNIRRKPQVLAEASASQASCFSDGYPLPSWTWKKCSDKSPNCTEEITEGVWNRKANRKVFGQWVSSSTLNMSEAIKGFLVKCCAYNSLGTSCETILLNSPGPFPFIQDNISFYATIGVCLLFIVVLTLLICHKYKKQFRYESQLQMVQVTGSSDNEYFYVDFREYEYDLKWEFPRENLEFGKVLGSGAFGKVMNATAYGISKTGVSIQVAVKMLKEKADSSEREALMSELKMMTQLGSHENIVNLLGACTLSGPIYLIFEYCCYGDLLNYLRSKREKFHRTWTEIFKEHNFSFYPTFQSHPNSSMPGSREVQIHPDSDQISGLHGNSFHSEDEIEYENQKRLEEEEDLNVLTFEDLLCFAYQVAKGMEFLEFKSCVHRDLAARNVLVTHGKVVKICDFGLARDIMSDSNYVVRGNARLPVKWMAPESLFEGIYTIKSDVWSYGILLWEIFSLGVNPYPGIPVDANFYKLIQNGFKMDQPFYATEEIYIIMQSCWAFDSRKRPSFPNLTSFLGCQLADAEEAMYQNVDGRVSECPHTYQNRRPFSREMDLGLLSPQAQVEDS
Procedure: Compounds' inhibition of recombinant kinases (FGR, FLT3, FMS, KIT, or RON) was measured using Caliper mobility shift assay, which is based on the difference in capillary electrophoresis mobility of a fluorescent-tagged peptide as a result of a phosphorylation by the kinase under study. Reactions were started by the addition of various concentrations of a compound (originally in DMSO solution) to a kinase solution in assay buffer followed by addition of a mixture of ATP and a fluorescent-tagged peptide substrate in assay buffer. Concentrations of the enzyme, ATP and the peptide were pre-optimized so that 15% substrate conversion to ensure initial velocity measurements. After incubation for 3 hours at room temperature, the kinase reaction was quenched by the addition of a concentrated EDTA solution before analysis on a LabChip EZ Reader II to yield percentage inhibition by comparing to the DMSO control.
Table 2 below summarizes the assay conditions for the characterization of the kinase inhibition properties of the disclosed compounds.

THP−1 = test: Cell viability assay (CellTiter-Glo), THP-1; assay type: cell-based; settings: THP-1 cells, 72 hr; for GI50: Homo sapiens
Procedure: as §1

Row | SMILES | GI50 (MV4−11) | IC50 (FLT3) | GI50 (THP−1) | THP−1 GI50 (THP−1) | GI50 (Kasumi−1)
1 | C=CC(=O)N1CCN(C)C[C@H]1C(=O)NCCOc1cc(Nc2ncc(-c3ccccc3)s2)nc(C)n1 [Compound 15, (2S)-4-methyl-N-[2-[2-methyl-6-[(5-phenylthiazol-2-yl)amino]pyrimidin-4-yl]oxyethyl]-1-prop-2-enoyl-piperazine-2-carboxamide] |  | < 10 nM |  |  | 
2 | C=CC(=O)N(C)[C@@H](C)C(=O)N[C@H]1CCN(c2cc(Nc3ncc(-c4ccncc4)s3)nc(C)n2)C1 [Compound 20, (2S)-2-[methyl(prop-2-enoyl)amino]-N-[(3S)-1-[2-methyl-6-[[5-(4-pyridyl)thiazol-2-yl]amino]pyrimidin-4-yl]pyrrolidin-3-yl]propanamide] |  | < 10 nM |  |  | 
3 | C=CC(=O)N1CCC[C@H]1C(=O)NCCNc1cc(Nc2ncc(-c3ccncc3)s2)nc(C)n1 [Compound 22, (2S)—N-[2-[[2-methyl-6-[[5-(4-pyridyl)thiazol-2-yl]amino]pyrimidin-4-yl]amino]ethyl]-1-prop-2-enoyl-pyrrolidine-2-carboxamide] |  | < 10 nM |  |  | 
4 | C=CC(=O)N(C)[C@@H](C)C(=O)NCCNC(=O)c1c[nH]c(/C=C2\C(=O)Nc3ccc(F)cc32)c1C [Compound 23, 5-[(5-fluoro-2-oxo-indolin-3-ylidene)methyl]-4-methyl-N-[2-[[(2S)-2-[methyl(prop-2-enoyl)amino]propanoyl]amino]ethyl]-1H-pyrrole-3-carboxamide] | < 10 nM | < 10 nM | ≥ 1000 nM |  | 
5 | CCC(=O)N(C)[C@@H](C)C(=O)NCCNC(=O)c1c[nH]c(/C=C2\C(=O)Nc3ccc(F)cc32)c1C [Compound 24, 5-[(5-fluoro-2-oxo-indolin-3-ylidene)methyl]-4-methyl-N-[2-[[(2S)-2-[methyl(propanoyl)amino]propanoyl]amino]ethyl]-1H-pyrrole-3-carboxamide] | 10 to 100 nM | 10 to 100 nM |  | = | 
6 | CC#CC(=O)N(C)[C@@H](C)C(=O)NCCNC(=O)c1c[nH]c(/C=C2\C(=O)Nc3ccc(F)cc32)c1C [Compound 25, N-[2-[[(2S)-2-[but-2-ynoyl(methyl)amino]propanoyl]amino]ethyl]-5-[(5-fluoro-2-oxo-indolin-3-ylidene)methyl]-4-methyl-1H-pyrrole-3-carboxamide] | < 10 nM | < 10 nM | ≥ 1000 nM |  | 
7 | C=CC(=O)N(C)[C@@H](C)C(=O)NC[C@H]1CCc2c([nH]c(/C=C3\C(=O)Nc4ccc(F)cc43)c2C)C1 [Compound 27, (2S)—N-[[(6S)-2-[(5-fluoro-2-oxo-indolin-3-ylidene)methyl]-3-methyl-4,5,6,7-tetrahydro-1H-indol-6-yl]methyl]-2-[methyl(prop-2-enoyl)amino]propanamide] | < 10 nM | < 10 nM | ≥ 1000 nM |  | 
8 | C=CC(=O)N(C)[C@@H](C)C(=O)NC[C@@H]1CCc2c([nH]c(/C=C3\C(=O)Nc4ccc(F)cc43)c2C)C1 [Compound 28, (2S)—N-[[(6R)-2-[(5-fluoro-2-oxo-indolin-3-ylidene)methyl]-3-methyl-4,5,6,7-tetrahydro-1H-indol-6-yl]methyl]-2-[methyl(prop-2-enoyl)amino]propanamide] | < 10 nM | < 10 nM | ≥ 1000 nM |  | 
9 | Cc1c(/C=C2\C(=O)Nc3ccc(F)cc32)[nH]c2c1CC[C@H](CNC(=O)[C@H](C)N(C)C(=O)/C=C/CN(C)C)C2 [Compound 29, (E)-4-(dimethylamino)-N-[(1S)-2-[[(6S)-2-[(Z)-(5-fluoro-2-oxo-indolin-3-ylidene)methyl]-3-methyl-4,5,6,7-tetrahydro-1H-indol-6-yl]methylamino]-1-methyl-2-oxo-ethyl]-N-methyl-but-2-enamide] | < 10 nM | < 10 nM | ≥ 1000 nM |  | 

Second part, led by results:

Row | GI50 (MV4−11) | IC50 (FLT3) | GI50 (THP−1) | THP−1 GI50 (THP−1) | SMILES | GI50 (Kasumi−1)
10 | 10 to 100 nM | < 10 nM | ≥ 1000 nM |  | Cc1cc(Nc2cc(NCCNC(=O)[C@@H]3COCCN3C(=O)/C=C/CN(C)C)nc(Nc3ccc(CC#N)cc3)n2)n[nH]1 [Compound 2] | 100 to 1000 nM
11 | < 10 nM | < 10 nM | 10 to 100 nM |  | C=CC(=O)N(C)[C@@H](C)C(=O)NCCNc1cc(Nc2ncc(C3CCC3)s2)nc(CC)n1 [Compound 6, (2S)—N-[2-[[6-[(5-cyclobutylthiazol-2-yl)amino]-2-ethyl-pyrimidin-4-yl]amino]ethyl]-2-[methyl(prop-2-enoyl)amino]propanamide] | < 10 nM
12 | < 10 nM | < 10 nM | 100 to 1000 nM |  | C=CC(=O)N(C)[C@@H](C)C(=O)NCCOc1cc(Nc2ncc(C3CCC3)s2)nc(CC)n1 [Compound 7, (2S)—N-[2-[6-[(5-cyclobutylthiazol-2-yl)amino]-2-ethyl-pyrimidin-4-yl]oxyethyl]-2-[methyl(prop-2-enoyl)amino]propanamide] | < 10 nM
13 | < 10 nM | < 10 nM | ≥ 1000 nM |  | CCc1nc(NCCNC(=O)[C@H](C)N(C)C(=O)/C=C/CN(C)C)cc(Nc2ncc(C3CCC3)s2)n1 [Compound 8, (E)-N-[(1S)-2-[2-[[6-[(5-cyclobutylthiazol-2-yl)amino]-2-ethyl-pyrimidin-4-yl]amino]ethylamino]-1-methyl-2-oxo-ethyl]-4-(dimethylamino)-N-methyl-but-2-enamide] | 100 to 1000 nM
14 | < 10 nM | < 10 nM | ≥ 1000 nM |  | Cc1nc(NCCNC(=O)[C@H](C)N(C)C(=O)/C=C/CN(C)C)cc(Nc2ncc(-c3ccccc3)s2)n1 [Compound 11] | < 10 nM
15 |  | < 10 nM |  |  | C=CC(=O)N1CCOC[C@H]1C(=O)NCCOc1cc(Nc2ncc(-c3ccccc3)s2)nc(C)n1 [Compound 14, (3S)—N-[2-[2-methyl-6-[(5-phenylthiazol-2-yl)amino]pyrimidin-4-yl]oxyethyl]-4-prop-2-enoyl-morpholine-3-carboxamide] | 
16 |  | 10 to 100 nM |  |  | C/C=C/C(=O)N(C)[C@@H](C)C(=O)NCCOc1cc(Nc2ncc(-c3ccccc3)s2)nc(C)n1 [Compound 16, N-methyl-N-[(1S)-1-methyl-2-[2-[2-methyl-6-[(5-phenylthiazol-2-yl)amino]pyrimidin-4-yl]oxyethylamino]-2-oxoethyl]but-2-enamide] | 
17 |  | < 10 nM |  |  | C=CC(=O)N(C)[C@@H](C)C(=O)NCCN(C)c1cc(Nc2ncc(-c3ccncc3)s2)nc(C)n1 [Compound 19, (2S)—N-[2-[methyl-[2-methyl-6-[[5-(4-pyridyl)thiazol-2-yl]amino]pyrimidin-4-yl]amino]ethyl]-2-[methyl(prop-2-enoyl)amino]propanamide] | 
18 |  | < 10 nM |  |  | C=CC(=O)N1CCC[C@H]1C(=O)N[C@H]1CCN(c2cc(Nc3ncc(-c4ccncc4)s3)nc(C)n2)C1 [Compound 21, (2S)—N-[(3S)-1-[2-methyl-6-[[5-(4-pyridyl)thiazol-2-yl]amino]pyrimidin-4-yl]pyrrolidin-3-yl]-1-prop-2-enoyl-pyrrolidine-2-carboxamide] | 
19 | < 10 nM | < 10 nM | ≥ 1000 nM |  | Cc1c(/C=C2\C(=O)Nc3ccc(F)cc32)[nH]c2c1CC[C@@H](CNC(=O)[C@H](C)N(C)C(=O)/C=C/CN(C)C)C2 [Compound 30, (E)-4-(dimethylamino)-N-[(1S)-2-[[(6R)-2-[(Z)-(5-fluoro-2-oxo-indolin-3-ylidene)methyl]-3-methyl-4,5,6,7-tetrahydro-1H-indol-6-yl]methylamino]-1-methyl-2-oxo-ethyl]-N-methyl-but-2-enamide] | 
